Experiments:
[1] = tested on: thoracic aorta ring of Wistar rats; assay: Endothelium-dependent vasodilator response of thoracic aorta ring of L-NAME-treated rats (Magnus apparatus); format: in vivo, rat; conditions: for Degree of vasodilation compared to the group given only L-NAME (in words): given together with L-NAME in drinking water for one week
Protocol: Wistar rats (7 weeks of age, male) as the test animals were acclimatized for one week. A nitric oxide synthesis inhibitor, NG-nitro-L-arginine methyl ester hydrochloride (L-NAME, manufactured by SIGMA-ALDRICH CORP.) was dissolved in drinking water at the concentration of 1 g/L, and similarly, L-NAME and Val-Pro-Pro synthesized above at 1 g/L and 0.3 g/L, respectively, and L-NAME and Ile-Pro-Pro synthesized above at 1 g/L and 0.3 g/L, respectively. The rats were allowed free access to the prepared drinking water for one week. As a control, only the drinking water without L-NAME dissolved therein was given to a non-treatment group.
Then, the rats were subjected to fatal exsanguination under diethyl ether anesthesia. The thoracic aorta was taken out, cut into 2 mm long, and made into an aorta ring. The ring was set in a Magnus apparatus (product name “micro tissue organ bath MTOB-1Z”, manufactured by LABO SUPPORT CO., LTD.) filled with 5 ml of Tyrode's solution (composition: 158.3 mM of NaCl, 4.0 mM of KCl, 2.0 mM of CaCl2, 1.05 mM of MaCl2, 0.42 mM of NaH2PO4, 10.0 mM of NaHCO3, and 5.6 mM of glucose; pH 7.4, 37±0.5° C.), and allowed to equilibrate with the resting tension of 2.0 g. The aorta ring was then allowed to constrict with 1 μM of phenylephrine
The degree of vasodilation by the response was determined as a ratio to the constriction with 1 μM of phenylephrine. In the Table, each value is an average of each group of 8 animals.
In the Table, each value is an average of each group of 9 animals.

arteriosclerosis = conditions: administration; Non-patent Publication 5; cited from earlier work
ApoE knockout mice = assay: Confirmatory test for effect of inhibiting vascular intimal thickening (Elastica-van Gieson stain, intima/media area ratio); format: in vivo, mouse; conditions: 31 weeks; for Inhibition of vascular intimal thickening (in words): Example 2-2, Feeds 1 to 6 versus control; for Degree of Intimal Thickening: intima/media area ratio
Protocol: ApoE knockout mice (6 weeks of age, male, 8 animals for each group) were allowed free access to Feeds 1 to 7 as shown in Table 6 for 31 weeks. Then the thoracic aorta of the mice was taken out, fixed in 10% neutral buffered formalin, and subjected to the Elastica-van Gieson stain. Micrographs of the tissue specimens were scanned into the computer, and the degree of vascular intimal thickening (intima/media area ratio (%)) was calculated using an image processing software (Image J). The values of the degree of thickening shown in the table are the averages of each group.
The confirmatory test for the effect of inhibiting vascular intimal thickening was conducted on each of the solid feeds thus produced in the same way as in Example 2-2, and the degree of intimal thickening (intimal/media area ratio (%)) was calculated. The values of the degree of intimal thickening in the table are the averages of each group.

For `CCOC(=O)[C@H](CCc1ccccc1)N[C@@H](C)C(=O)N1CCC[C@H]1C(=O)O` [enalapril, reference compound], the “Degree of vasodilation compared to the group given only L-NAME (in words)” value [1] is given as “no significant difference” and the Arteriosclerosis inhibitory effect (arteriosclerosis) is given as “does not result in an arteriosclerosis inhibitory effect”.
For Ile-Pro-Pro, the “Degree of vasodilation compared to the group given only L-NAME (in words)” value [1] was “significantly higher”, the “Inhibition of vascular intimal thickening (in words)” value (ApoE knockout mice) was “inhibited vascular intimal thickening concentration-dependently” and the “Degree of Intimal Thickening” value (ApoE knockout mice; Feed 3: 0.0017 wt % in feed (Ile-Pro-Pro 17.1 mg/kg feed)) was 25.3%. The “Degree of Intimal Thickening” value (ApoE knockout mice; Feed 4: 0.0170 wt % in feed (Ile-Pro-Pro 171.0 mg/kg feed)) was 20.5%.
In the case of Val-Pro-Pro, the “Degree of vasodilation compared to the group given only L-NAME (in words)” value [1] is reported as “significantly higher”, the “Inhibition of vascular intimal thickening (in words)” value (ApoE knockout mice) is reported as “inhibited vascular intimal thickening concentration-dependently” and the “Degree of Intimal Thickening” value (ApoE knockout mice; Feed 1: 0.0034 wt % in feed (Val-Pro-Pro 34.1 mg/kg feed)) is reported as 21.8%. For the same molecule, the “Degree of Intimal Thickening” value (ApoE knockout mice; Feed 2: 0.0340 wt % in feed (Val-Pro-Pro 341.0 mg/kg feed)) was 18.7%.
Molecule `COC(=O)[C@@H](N)CCCN=C(N)N[N+](=O)[O-].Cl` [L-NAME, NG-nitro-L-arginine methyl ester hydrochloride, reference compound] has a Degree of vasodilation ([1]; 10 μM acetylcholine, ratio to constriction with 1 μM phenylephrine, drinking water one week: L-NAME 1 g/L, peptide 0.3 g/L, enalapril 0.5 mg/L) of 26.1%.

— US20150307549A1, “AGENT FOR PREVENTING ARTERIOSCLEROSIS, AGENT FOR SUPPRESSING VASCULAR INTIMAL THICKENING AND AGENT FOR IMPROVING VASCULAR ENDOTHELIAL FUNCTION” (CALPIS Co., LTD, priority 2006, published 2015)
